Experiment [1] relates to Gli1. Briefly: Gli1 expression by qRT-PCR in anti-CD3ε-stimulated murine CD8+ CTLs. The format is cell-based. To be noted: anti-CD3ε restimulation 6 hours. On the procedure:
(§1) FIG. 1. L-type Cav channel agonists increase Gli1 expression and enhance specific cell killing by murine CD8+ CTLs. CD8^+ T cells were isolated from the spleen and inguinal lymph nodes of Rag2^−/− OT-I mice, and CTLs were generated. (A) Cells were restimulated on day 9/10 for 3 hours using plate-bound anti-CD3ε in the presence of indicated concentrations of FPL 64176 or carrier control. RNA was extracted and Gli1 expression was assessed by qRT-PCR. Data is n=3 independent experiments. us=unstimulated cells. (B) An LDH cytotoxicity assay was performed using OT-I CTLs. On day 7, CTLs were co-cultured with Ova peptide-pulsed EL-4 cells in the presence of 10 μM FPL 64176 (squares) or carrier control (circles). Data is n=4 independent experiments. (C) Updated experiment of (A). Data is now n=4 independent experiments. Data is normalised to Tbp as a reference gene. 0h=unstimulated cells. (D) Same data as (B) represented differently. […] Error bars indicate SD. p values were calculated using an unpaired two-tailed Student's t test (C) or a two-way ANOVA (B/D). * indicates p<0.05, ** indicates p<0.01, **** indicates p<0.0001.
FIG. 2. FPL 64176 but not (R)-Baclofen nor Nefiracetam enhance Gli1 expression in murine CD8+ CTLs. Naïve CD8^+ T cells were isolated from the spleens of OT-I Rag2^−/− mice and CTLs were generated. Cells were restimulated using an anti-CD3ε mAb in the presence indicated concentrations of (A) FPL 64176, (B) (R)-Baclofen or (C) Nefiracetam (or carrier control). CTLs were pre-incubated with the relevant pharmacological agents for 40-50 mins prior to stimulation (ensuring sufficient time for the agents, e.g., FPL 64176, to enter the cell. Gli1 expression was assessed by qRT-PCR. Data is n=2 independent experiments. Error bars indicate SD.
To investigate a potential role for L-type Cav channel agonists in modulating CD8+ CTL activation and effector function, CD8+ T cells were isolated from the spleen and inguinal lymph nodes of Rag2−/− OT-I mice and CTLs were generated. […] OT-I mice bear a transgene encoding for a TCR that recognises a chicken ovalbumin (Ova) peptide fragment. Rag2−/− OT-I mice facilitate the isolation of naïve CD8+ T cell populations. Plates were coated using 2.5 μg/mL anti-CD3ε mAb and CD8+ CTLs were stimulated for 3 hours via the TCR in the presence of 5 or 10 μM FPL 64176, an L-type Cav channel agonist, or carrier control. Note that CD8+ CTLs were pre-incubated with FPL 64176 or carrier control for 40-50 mins before stimulation. Gli1 expression was assessed using qRT-PCR.
In brief, naïve CD8+ T cells were isolated from the spleen and inguinal lymph nodes of C57BL/6 wildtype mice and CTLs were generated. […] RNA was extracted from cells and Gli1 expression was assessed by qRT-PCR. […]

The subject of the next experiment is EL-4 tumour cells. Briefly: LDH cytotoxicity assay, OT-I CD8+ CTLs co-cultured with Ova peptide-pulsed EL-4 target cells. The format is cell-based, murine. To be noted: 1.25 mM BAPTA, LDH assay 3 h. On the procedure:
as §1
FIG. 11. […] (A) Quantitative analysis of live cell numbers. […] (E) Quantitative analysis of live cell numbers. […]
To ensure that the use of L-type Cav agonist is not adversely affecting immune cells, general cell functions were assessed. […]

The test system of experiment [2] is GLI1. Briefly: GLI1 expression by qRT-PCR in NK-92 cells. In kind it is cell-based, human. To be noted: stimulated with anti-NKp46 mAb 4 hours, 100 μM, vs carrier control. The method, then:
FIG. 5. L-type Cav channel agonists increase GLI1 expression in the human NK cell line NK-92 and promote specific tumour cell killing. (A) NK-92 cells were stimulated using an anti-NKp46 mAb for 4 hours in the presence of 10 μM FPL 64176, and GLI1 expression was assessed using qRT-PCR. Data is n=4 independent experiments. (B) NK-92 cells were stimulated using an anti-NKp46 mAb for 4 hours in the presence of 100 μM Bay K8644, and GLI1 expression was assessed using qRT-PCR. Data is n=3 independent experiments. (C) An LDH assay was performed to assess specific cell killing of K562 target cells at indicated effector to target ratios in the presence of 10 μM FPL 64176 (right-hand columns) or carrier control (left-hand columns). Error bars indicate SD. Data is from n=3 independent experiments.
To investigate whether L-type Cav channel agonists are also capable of enhancing GLI1 mRNA levels in the human NK cell line NK-92 (a non-Hodgkin's lymphoma cell line, expressing only Cav1.3), NK-92 cells were stimulated using an anti-NKp46 mAb (5 μg/mL) for 4 hours in the presence of either 10 μM FPL 64176 or 100 μM Bay K8644. For reference, Bay K8644 is a structural analogue of nifedipine, and acts as an L-type Cav channel agonist. GLI1 expression was assessed using qRT-PCR. […] These observations confirm that the GLI1-inducing effect of Cav agonists is not merely restricted to the compound FPL 64176. In particular, in NK cells.
For orientation: In qPCR the cycle at which signal appears reflects the starting amount.

Turning to `NC[C@H](CC(=O)O)c1ccc(Cl)cc1` [(R)-Baclofen], the “Gli1 expression following TCR activation” value in the experiment on Gli1 [1] (indicated concentrations, vs carrier control (FIG. 2)) was “little effect”.
Regarding `O=C(O)CN(CC(=O)O)c1ccccc1OCCOc1ccccc1N(CC(=O)O)CC(=O)O` [BAPTA], the immune cell killing entry in the experiment with EL-4 tumour cells is “depleted”.
As to `COC(=O)C1=C(C)NC(C)=C([N+](=O)[O-])C1c1ccccc1C(F)(F)F` (stereo not shown) [Bay K8644], the “GLI1 mRNA levels” value in the experiment with GLI1 [2] is given as “increased (almost two-fold)”.
In the case of `Cc1cccc(C)c1NC(=O)CN1CCCC1=O` [Nefiracetam], in the experiment on Gli1 [1] (vs carrier control (FIG. 2C)), the “reduction of Gli1 expression” value was “around 50%”.

For the origin of these results see patent US20250222028A1, “ENGINEERED IMMUNE CELL PLATFORM” (Cancer Research Technology Limited, priority 2022, published 2025).
